Measurements from patent EP0508425A1, “Bicyclic amides as inhibitors of acyl-coenzyme a: cholesterol acyl transferase” (SCHERING CORPORATION, priority 1991, dated 1992).

What was measured:
[1] = tested on: Hyperlipidemic Hamster; experiment: In Vivo Assay of Hypolipidemic Agents Using the Hyperlipidemic Hamster; parameters: species or system Hamsters; conditions: oral gavage once daily, seven days, versus control
Method: In Vivo Assay of Hypolipidemic Agents Using the Hyperlipidemic Hamster
Hamsters are separated into groups of six and given a control cholesterol diet (Purina Chow #5001 containing 0.5% cholesterol) for seven days. Diet consumption is monitored to determine dietary cholesterol exposure in the face of test compounds. The animals are dosed with the test compound once daily beginning with the initiaton of diet. Dosing is by oral gavage of 0.2 mL of corn oil alone (control group) or solution (or suspension) of test compound in corn oil. All animals moribund or in poor physical condition are euthanized. After seven days, the animals are anesthetized by IM injection of ketamine and sacrificed by decapitation. Blood is collected into vacutainer tubes containing EDTA for plasma lipid analysis and the liver excised for tissue lipid analysis. Data is reported as percent reduction of lipid versus control.

[2] = tested on: ACAT; experiment: ACAT Assay (in vitro); format: biochemical; conditions: 10 µM test compound; rat liver microsomes
Method: This assay measures the activity of ACAT by measuring the ACAT-mediated transfer of tritiated oleic acid from acyl-CoA to cholesterol to give labelled cholesterol oleate. Rat liver microsomes are used as the source of ACAT. Assays are performed in round bottom microtiterplates using a total incubation volume of 50 µL. Each incubation well receives 10 µl assay buffer (0.5M KHPO₄, 10 µM dithiothreitol, pH 7.4), 7.5 µL of 40 mg/mL BSA (Bovine Serum Albumin) and 12.5 µg of microsomal protein. The test compound (in sufficient amount to bring the final concentration to from 0.1 to 25 µM), reference compound, or vehicle control is added and the final volume brought to 47 µL. The microtiterplate is then floated on the surface of a 37°C water bath for fifteen minutes. Incubations are started by the addition of 3 µL ³H-acyl CoA (1µCi/well, final concentration of 10 µM acyl CoA). The plate is then returned to the water bath for 15 minutes. The incubations are then terminated by application of 15 µL from each incubation to individual lanes on a thin layer plate (Silica Gel GF 20 x 20 cm). Standards are applied to several lanes so that the cholesterol ester band can be identified. After drying, the plates are eluted with 90:10:1 petroleum ether:ether:HOAc. The standards are visualized via iodine vapor, and the regions corresponding to cholesterol ester are scraped into 7 mL scintillation vials. 4 mL of scintillant are added to each vial, and the radioactivity quantified. Background count is determined by the boiled controls. Full activity is determined by activity in the presence of vehicle. The percent inhibition is calculated by subtracting the background from both control and test samples, and the test value is calculated as a percentage of the control. For IC₅₀ determinations, the inhibition is plotted against drug doses on a log scale and the concentration at which 50% inhibition is obtained is determined.

SMILES	% Reduction in cholesteryl esters (dose in mpk) ([1]; dose 50 mpk)	ACAT % Inhibition dose = 10 µM [2]	% Reduction in cholesteryl esters (dose in mpk) ([1]; dose 10 mpk)	% Reduction in cholesteryl esters (dose in mpk) ([1]; dose 25 mpk)
COc1ccc([C@H]2CCc3ccccc3[C@H]2NC(=O)C(c2ccccc2)c2ccccc2)cc1 (relative stereo) [Example 1, cis-N-[-2-(4'-methoxyphenyl)-1,2,3,4-tetrahydronaphthalen-1-yl]-α-phenylbenzeneacetamide]	0 (50) %	–	–	–
COc1ccc([C@H]2Cc3ccccc3[C@H]2NC(=O)C(c2ccccc2)c2ccccc2)cc1 (relative stereo) [Example 2, cis-N-[2-(4'-methoxyphenyl)indanyl]-α-phenylbenzeneacetamide]	-17 (50) %	96%	–	–
O=C(N[C@@H]1c2ccccc2C[C@@H]1c1ccc(O)cc1)C(c1ccccc1)c1ccccc1 (relative stereo) [Example 3, cis-N-[2-(4'-hydroxyphenyl)indanyl]-α-phenylbenzeneacetamide]	-89%	99%	-71%	-87.5%
CCCCCCCC/C=C\CCCCCCCC(=O)N[C@@H]1c2ccccc2CC[C@H]1c1ccc(O)cc1 (relative stereo) [Example 4, trans-N-[2-(4'-hydroxyphenyl)-1,2,3,4-tetrahydronaphth-1-yl]oleamide]	0 (50) %	94%	–	–
Nc1ccc([C@@H]2Cc3ccccc3[C@H]2NC(=O)C(c2ccccc2)c2ccccc2)cc1 (relative stereo) [Example 5, trans-N-[2-(4'-aminophenyl)indanyl]-α-phenylbenzeneacetamide]	–	94%	–	–
Nc1cccc([C@H]2Cc3ccccc3[C@H]2NC(=O)C(c2ccccc2)c2ccccc2)c1 (relative stereo) [Example 5A, cis-N-[2-(3'-aminophenyl)-indanyl]-α-phenylbenzeneacetamide]	–	95%	0 (10) %	–
COc1ccc([C@@H]2CCc3ccccc3[C@H]2NC(=O)N(c2ccccc2)c2ccccc2)cc1 (relative stereo) [Example 6, trans-N'-[2-(4'-methoxyphenyl)-1,2,3,4-tetrahydronaphthalen-1-yl]-N,N-diphenylurea]	-16 (50) %	97%	–	–
O=C(N[C@@H]1c2ccccc2C[C@@H]1c1ccc(O)c(Br)c1)C(c1ccccc1)c1ccccc1 (relative stereo) [Example 7, (+)-cis-N-[2-(3'-bromo-4'-hydroxyphenyl)indanyl]-α-phenylbenzeneacetamide]	-40 (50) %	100%	–	–
O=C(N[C@@H]1c2ccccc2C[C@@H]1c1ccc(O)c(Cl)c1)C(c1ccccc1)c1ccccc1 (relative stereo) [Example 8, cis-N-[2-(3'-chloro-4'-hydroxyphenyl)-indanyl]-α-phenylbenzeneacetamide]	-40 (50) %	99%	–	–
O=C(N[C@@H]1c2ccccc2C[C@@H]1c1cc(Cl)c(O)c(Cl)c1)C(c1ccccc1)c1ccccc1 (relative stereo) [Example 8A, cis-N-[2-(3',5'-dichloro-4'-hydroxyphenyl)indanyl]-α-phenylbenzeneacetamide]	-14 (50) %	99%	–	–
Cc1cc([C@H]2Cc3ccccc3[C@H]2NC(=O)C(c2ccccc2)c2ccccc2)ccc1O (relative stereo) [Example 9, (+)-cis-N-[2-[4'-hydroxy-3'-methylphenyl)indanyl]-α-phenylbenzeneacetamide]	-66 (50) %	98%	–	–
Cc1cc([C@H]2Cc3ccccc3[C@H]2NC(=O)C(c2ccccc2)c2ccccc2)cc(C)c1O (relative stereo) [Example 9A, (+)-cis-N-[2-(3',5'-dimethyl-4'-hydroxyphenyl)indanyl]-α-phenylbenzeneacetamide]	-60 (50) %	97%	–	–
